Data published in patent publication US12234205B1, “Sulfonylhydrazide derivatives as anticancer agents” (KING SAUD UNIVERSITY, priority 2024, dated 2025).

Columns and labels:
A549 NSCLC cell line = assay: Inhibition of A549 NSCLC cell line (sulforhodamine B assay, 72 h); type: cell-based; details: Homo sapiens, SRB assay, 72 hours exposure
Method: (§1) IC50 is the concentration at which 50% of the cells were inhibited after treatment with a target compound. SEM is the standard error of means.
Inhibition of A549 NSCLS (Non-Small Cells Lung Cancer) Cell Line
A549 cell lines were obtained from the National Cancer Institute (Cairo, Egypt) and maintained in Roswell Park Memorial Institute medium (RPMI1640) (Invitrogen, Carlsbad, CA, USA) supplemented with […] of streptomycin, 100 units/mL of penicillin and 10% of heat-inactivated fetal bovine serum (Invitrogen) in a humidified, 5% (v/v) CO2 atmosphere at 37° C. The sulforhodamine B (SRB) assays were performed according to Skehan et al 20, 21. Briefly, exponentially growing cells were trypsinized, counted and seeded at the appropriate densities (5000 cells/100 μL/well) into 96-well microtiter plates. Cells were incubated in a humidified atmosphere at 37° C. for 24 h. Then, the cells were exposed to different compounds at the desired concentrations, (0.01, 0.03, 0.1, 0.3, 1, 3, 10, 30 and 100 μM) or to 1% dimethyl sulfoxide (DMSO) for 72 hours. At the end of the treatment period, the media were removed, and the cells were fixed with 10% trichloroacetic acid at 4° C. for 1 h. The cells then were washed with tap water four times and incubated with SRB 0.4% for 30 min. Excess dye was removed by washing repeatedly with 1% (vol/vol) acetic acid. The protein-bound dye was dissolved in 10 mM Tris base solution for OD determination at 510 nm using a SpectraMax plus Microplate Reader (Molecular Devices, CA). Cell viability was expressed relative to the untreated control cells. Statistical analyses were performed using legally licensed GraphPad Prism™ and Instat™ software (GraphPad Inc., La Jolla, CA, USA).

hFAAH = molecular target: T1, hFAAH (Homo sapiens, UniProt O00519); assay: Inhibition of FAAH activity (Cayman FAAH inhibitor screening assay kit, AMC-arachidonoyl amide hydrolysis, fluorescence); type: biochemical; details: 30 min preincubation; for inhibition at 10 µM: 10 μM compound, 37° C., triplicate; for IC50: only compounds with more than 50% inhibition at 10 μM
T1 construct: purchased Cayman Chemicals 10005196
T1 sequence (O00519 1-579): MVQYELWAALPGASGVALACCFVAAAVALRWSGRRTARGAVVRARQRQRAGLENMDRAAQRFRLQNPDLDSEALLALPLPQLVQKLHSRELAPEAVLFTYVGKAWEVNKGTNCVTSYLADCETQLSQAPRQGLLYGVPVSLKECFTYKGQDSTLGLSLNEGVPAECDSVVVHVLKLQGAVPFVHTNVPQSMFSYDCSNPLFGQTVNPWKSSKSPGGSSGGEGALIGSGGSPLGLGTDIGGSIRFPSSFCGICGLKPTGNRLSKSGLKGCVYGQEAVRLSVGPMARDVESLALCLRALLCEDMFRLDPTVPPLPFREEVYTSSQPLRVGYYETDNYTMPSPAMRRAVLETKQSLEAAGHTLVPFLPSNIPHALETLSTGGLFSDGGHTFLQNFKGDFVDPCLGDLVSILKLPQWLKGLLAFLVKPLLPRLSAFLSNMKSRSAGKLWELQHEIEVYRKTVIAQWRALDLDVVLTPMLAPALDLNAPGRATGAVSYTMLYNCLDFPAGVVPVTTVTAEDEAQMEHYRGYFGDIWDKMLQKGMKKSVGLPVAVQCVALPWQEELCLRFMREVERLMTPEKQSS
Method: Inhibition of FAAH Activity
Assay was performed using kits (#10005196) purchased from Cayman Chemicals (Anne Arbor, MI, USA). Ibuprofen was acquired as a generous gift from Tabuk Pharmaceuticals (Tabuk, SA). Doxorubicin was purchased from Sigma (St. Luis, MI, USA). Assay was performed using the FAAH inhibitor screening assay kit from Cayman Chemicals according to the manufacturer's protocol. Release of the fluorescent product, 7-amino-4-methylcoumarin (AMC), from the hydrolysis of AMC-arachidonoyl amide, mediated by FAAH at 37° C., was recorded using a plate reader with an excitation filter of 340-360 nm and an emission filter of 450-465 nm. Inhibitors were preincubated for 30 min at indicated concentrations with the enzyme prior to the addition of substrate to initiate the reaction. Change in fluorescence with time was taken as enzyme activity and the extent of inhibition was calculated from the initial rates. Final DMSO concentration was kept at 2% (v/v) in the assay. Each concentration was repeated three times (Triplicate) to conform to statistical accuracy. Percentage of inhibition at 10 μM was measured for all compounds. Compounds which were able to inhibit the enzyme activity more than 50% at 10 μM were considered eligible for IC50 calculations. For IC50, the inhibition assay was performed at 1.0, 0.1, 0.01, 0.001 and 0.0001 μM concentration of compound under assay. The hFAAH inhibition was calculated as compared to activity observed with vehicle. IC50 values were calculated using Prism v.7.02 for each column separately (singlet concentration). The compound's IC50 was calculated using InStat v.3 software (GraphPad Software, San Diego, CA) which was also used for calculation of standard error of means (SEM). Referring to FIG. 1, inhibition of hFAAH by compound 10 is shown.
as §1

SMILES	IC50 (A549 NSCLC cell line)	inhibition at 10 µM (hFAAH)	IC50 (hFAAH)
COc1cccc2c1C(=O)c1c(O)c3c(c(O)c1C2=O)C[C@@](O)(C(=O)CO)C[C@@H]3O[C@H]1C[C@H](N)[C@H](O)[C@H](C)O1 [Doxorubicin, reference compound]	2.28 µM		
CC(C)Cc1ccc(C(C)C(=O)NNS(=O)(=O)C(Br)c2ccccc2)cc1 (stereo not drawn) [Compound 6, 1-Bromo-N′-(2-(4-isobutylphenyl)propanoyl)-1-phenylmethane sulfonohydrazide]	> 100 µM	20.6%	
CC(=O)c1ccc(S(=O)(=O)NNC(=O)C(C)c2ccc(CC(C)C)cc2)cc1 (stereo not drawn) [Compound 1, 4-acetyl-N′-(2-(4-isobutylphenyl)propanoyl)benzenesulfonohydrazide]	> 100 µM	33.6%	
COc1ccc(S(=O)(=O)NNC(=O)C(C)c2ccc(CC(C)C)cc2)cc1OC (stereo not drawn) [Compound 14, N′-(2-(4-isobutylphenyl)propanoyl)-3,4-dimethoxybenzene sulfonohydrazide]	> 100 µM	23.8%	
CC(C)Cc1ccc(C(C)C(=O)NNS(=O)(=O)c2ccccc2)cc1 (stereo not drawn) [Compound 9, N′-(2-(4-isobutylphenyl)propanoyl) benzenesulfonohydrazide]	46.4 µM	99.9%	144 nM
CC(C)Cc1ccc(C(C)C(=O)NNS(=O)(=O)c2ccc(-c3ccccc3)cc2)cc1 (stereo not drawn) [Compound 10, N′-(2-(4-isobutylphenyl)propanoyl)-[1, 1′-biphenyl]-4-sulfonohydrazide]	0.291 µM	98.1%	5.6 nM
CC(C)Cc1ccc(C(C)C(=O)NNS(=O)(=O)Cc2ccccc2)cc1 (stereo not drawn) [Compound 20, N′-(2-(4-isobutylphenyl)propanoyl)-1-phenylmethanesulfonohydrazide]	> 100 µM	44.2%	
Cc1ccc(-c2ccc(S(=O)(=O)NNC(=O)C(C)c3ccc(CC(C)C)cc3)cc2)cc1 (stereo not drawn) [Compound 11, N′-(2-(4-isobutylphenyl)propanoyl)-4′-methyl-[1, 1′-biphenyl]-4-sulfonohydrazide]	16 µM	95.3%	72 nM
CC(C)Cc1ccc(C(C)C(=O)NNS(=O)(=O)c2ccc(Br)cc2)cc1 (stereo not drawn) [Compound 13, 4-Bromo-N′-(2-(4-isobutylphenyl)propanoyl)benzenesulfonohydrazide]	> 100 µM	48.7%	
CC(C)Cc1ccc(C(C)C(=O)NNS(=O)(=O)c2ccc(Br)s2)cc1 (stereo not drawn) [Compound 16, 5-Bromo-N′-(2-(4-isobutylphenyl)propanoyl) thiophene-2-sulfonohydrazide]	> 100 µM	28.4%	
CC(C)Cc1ccc(C(C)C(=O)NNS(=O)(=O)c2ccc3ccccc3c2)cc1 (stereo not drawn) [Compound 4, N′-(2-(4-isobutylphenyl)propanoyl)naphthalene-2-sulfonohydrazide]	53 µM	87.8%	179 nM
CC(C)Cc1ccc(C(C)C(=O)NNS(=O)(=O)c2c(C(C)C)cc(C(C)C)cc2C(C)C)cc1 (stereo not drawn) [Compound 5, N′-(2-(4-isobutylphenyl)propanoyl)-2,4, 6 triisopropyl benzene sulfonohydrazide]	73 µM	8.85%	
CC(C)Cc1ccc(C(C)C(=O)O)cc1 (stereo not drawn) [Ibuprofen, reference compound]		10%	
CC(C)Cc1ccc(C(C)C(=O)NNS(=O)(=O)c2ccccc2[N+](=O)[O-])cc1 (stereo not drawn) [Compound 3, N′-(2-(4-isobutylphenyl)propanoyl)-2-nitrobenzenesulfonohydrazide]	55.6 µM	45.5%	
Cc1ccc(S(=O)(=O)NNC(=O)C(C)c2ccc(CC(C)C)cc2)cc1 (stereo not drawn) [Compound 2, N′-(2-(4-isobutylphenyl)propanoyl)-4-methylbenzene sulfonohydrazide]	> 100 µM	63.5%	1460 nM
Cc1ccc(S(=O)(=O)NNC(=O)C(C)c2ccc(CC(C)C)cc2)s1 (stereo not drawn) [Compound 17, N′-(2-(4-isobutylphenyl)propanoyl)-5-methylthiophene-2-sulfonohydrazide]	> 100 µM	7.44%	
CC(C)Cc1ccc(C(C)C(=O)NNS(=O)(=O)c2cccc(C(F)(F)F)c2)cc1 (stereo not drawn) [Compound 7, N′-(2-(4-isobutylphenyl)propanoyl)-3-(trifluoromethyl) benzene sulfonohydrazide]	> 100 µM	36.1%	
COc1ccc(-c2ccc(S(=O)(=O)NNC(=O)C(C)c3ccc(CC(C)C)cc3)cc2)cc1 (stereo not drawn) [Compound 12, N′-(2-(4-isobutylphenyl)propanoyl)-4′-methoxy-[1, 1′-biphenyl]-4sulfonohydrazide]	11.7 µM	99%	141 nM
CC(C)Cc1ccc(C(C)C(=O)NNS(=O)(=O)c2ccc(C(F)(F)F)nc2)cc1 (stereo not drawn) [Compound 19, N′-(2-(4-isobutylphenyl)propanoyl)-6-(trifluoromethyl)pyridine-3sulfonohydrazide]	> 100 µM	40.5%	
CC(C)Cc1ccc(C(C)C(=O)NNS(=O)(=O)c2ccc(C(F)(F)F)cc2)cc1 (stereo not drawn) [Compound 8, N′-(2-(4-isobutylphenyl)propanoyl)-4-(trifluoromethyl) benzene sulfonohydrazide]	40.1 µM	74%	1200 nM
CC(C)Cc1ccc(C(C)C(=O)NNS(=O)(=O)c2cccs2)cc1 (stereo not drawn) [Compound 15, N′-(2-(4-isobutylphenyl)propanoyl)thiophene-2-sulfonohydrazide]	> 100 µM	86.5%	672 nM
CC(C)Cc1ccc(C(C)C(=O)NNS(=O)(=O)c2cccnc2)cc1 (stereo not drawn) [Compound 18, N′-(2-(4-isobutylphenyl)propanoyl)pyridine-3-sulfonohydrazide]	> 100 µM	58.6%	4010 nM
